Data: article PMC8277129, “Bioconcentration of Several Series of Cationic Surfactants in Rainbow Trout” (Environmental Science & Technology, 2021)
Like-named read-outs stand apart in the source and are kept apart here. Marks after values point to notes of the source that are not given here. Blank lines part the entries; values can stand above or below the compound they belong to.

Legend:
[1] = design: method as in REACH dossier; conditions: aqueous; ref REACH dossier; cited from earlier work
[2] = design: method as in Perrin 1965, SRC, REACH, Perrin 1972, Hall 1957; conditions: ref Perrin 1965, SRC, REACH, Perrin 1972, Hall 1957, cited from earlier work; for pKa, experimental reference data: 25 °C
[3] = ref Timmer and Droge (2017); cited from earlier work
[4] = tested on: juvenile rainbow trout (Oncorhynchus mykiss); experiment: Bioconcentration (BCF) experiment based on OECD 305, aqueous exposure to surfactant mixtures; assay type: in vivo; conditions: for factor by which BCF is lower at pH 6.2 than at pH 7.6: MIX1 vs MIX1pH; for BCF (kU/kT) / uptake rate constant (kU): whole fish; for uptake rate constant (kU): 14 d exposure, 28 d depuration
Description: (§1) Juvenile rainbow trout were purchased from EM lax in Västervik, Sweden, and held in the aquaria facility for one month prior to starting the experiment on August 28, 2018. Ethical approval for the experiments was obtained from Stockholm’s djurförsöksetiska nämnd (decision 9967–2017). The experiment was conducted in six 350 L fiberglass aquaria with a water renewal rate of 1.5 L min^–1 corresponding to a turnover time of […]. The water temperature and the air temperature in the aquaria room were 10 °C. The lighting was dim and programmed on a 12 h light/12 h dark cycle.
(§2) Three BCF experiments were conducted, one each for MIX1 and MIX2 at pH ∼7.6 (denoted MIX1 and MIX2 in the following), and one for MIX1 at pH ∼6.2 (MIX1pH). Each experiment consisted of a 14 d exposure phase and a 28 d depuration phase. There were also two control aquaria where unexposed fish were kept, one at pH 7.6 and one at pH 6.2. For the pH 6.2 aquaria, a 20% v:v formic acid solution was pumped into a premixing basin where it was mixed with the inflowing water before entering the aquarium. pH sensors monitored pH in the premixing basin and the aquarium. The pH for the MIX1 and MIX2 experiments was governed by the pH of the water supply. Water samples were collected at 8 time points during each experiment for the determination of pH and alkalinity. Water samples were collected daily during the exposure phase for determination of total organic carbon (TOC), which was measured with NDIR detection after acidification, purging and high-temperature catalytic combustion (Shimadzu TOC-L).
(§3) For the exposure phase, a methanol solution of the test chemical mixture was infused continuously at 4.0 μL min^–1 into the water inflow of the aquarium using a syringe pump. The target concentrations of the chemicals in water ranged from 2.5 to 100 μg L^–1 (Table 1). They were selected to be as low as possible to minimize the risk of toxic effects while still being high enough to enable collection of high-quality data, building on the results of the tissue distribution experiment.[32] The syringe pump was started in an aquarium containing no fish. After 16 h to allow the concentrations to stabilize, ∼80 rainbow trout were transferred to the aquarium. Over the following 14 d water samples were collected and fish were sacrificed according to the schedule in Table S5. The remaining fish were then transferred to a second aquarium that received water without chemical addition. Over the following 28 d further water samples were collected and fish were sacrificed (Table S5).
(§4) At each fish sampling, 4–6 fish were sacrificed. Fish were also sampled periodically from the control aquaria. Following stunning and severance of the spinal cord, the fish were placed in a polyethylene bag, weighed, and immediately frozen at −20 °C. The median fish weight at sacrifice was 10.94 g, with a 25th and 75th percentile of 8.43 and 13.58 g, respectively.
(§5) Three fish from each time point were prioritized for analysis based on proximity to the median fish weight. Each fish was semithawed, cut into 3–4 pieces, and homogenized with an Ultra-Turrax device. 150 mg of the homogenate was transferred to a preweighed 13 mL polypropylene tube, centrifuged to a pellet, and weighed. 50 μL of methanol was added and the prepared aliquot was frozen. For extraction internal standard solution (isotope labeled standards of Q10 (D21), Q14 (D29), and P16 (D33)), 3 mL of methanol and 3 steel balls (3.2 mm diameter) were added to the prepared aliquot. This mixture was mixed in a bullet blender for 1 min, and then placed in an ultrasound bath at 50 °C for 60 min. Following centrifugation, the supernatant was decanted and the extraction was repeated. The extracts were combined and a portion corresponding to 25–50 mg homogenate was cleaned up on a weak cationic exchange SPE column (WCX, 60 mg) as described elsewhere.[32] […]

gills of rainbow trout = experiment: Mechanistic one-box mass balance model of gill uptake and elimination; conditions: for predicted gill elimination rate constant eq 1 (k2): from measured kU and modeled αW, αB, DFW
Description: To gain more mechanistic insight into the results, we formulated a simple one-box mass balance model of chemical bioconcentration in fish that considered diffusive uptake and elimination across the gills as well as biotransformation.[33] The flow of water across the gills and the flow of blood through the gills were modeled as perfusion limited resistances that constrain gill uptake and elimination. […] Consequently, these resistances are unknowns. Ion trapping effects caused by differences in pH between water at the gill surface and blood in the gills are considered, drawing on previous work on the uptake and elimination of ionizable organic chemicals across the gills of rainbow trout.[22],[23] Partitioning of the chemical from the dissolved phase into blood and into whole fish was calculated as the product of the membrane lipid–water distribution ratio (DMLW,T, including partitioning of both the neutral and the charged forms) and the fraction of membrane lipid in blood and whole fish. A detailed description of the model is provided in the SI (Text S3).
The contribution of the water perfusion and blood perfusion resistances were compared with the overall resistance for transport across the gills from water to blood (RW→B), which was calculated from the measured kU according to equation S4.3. […] For all of the other chemicals the blood resistance is insignificant compared to the overall resistance.
The rate constant for elimination across the gills, k2, can be defined as follows: [drawing 1] 1 where αB and αW are the neutral fractions of the chemical in the blood and in the water at the gill surface, respectively, and DFW is the fish-water distribution ratio of the chemical at the pH of blood (8.1) (see Text S3). Using the measured kU and the values of αW, αB, and DFW estimated for the model, k2 was calculated (Table 2).

[5] = Bioconcentration (BCF) experiment based on OECD 305, aqueous exposure to surfactant mixtures; assay type: in vivo, Oncorhynchus mykiss; conditions: whole fish, read-out: measured total elimination rate constant (kT) (converted)
Description: as §1, §2, §3, §4, §5

Compound: CCCCCCCCCC[N+](C)(C)CCCCCCCCCC.CCCCCCCCCC[N+](C)(C)CCCCCCCCCC.O=C([O-])CCCCC(=O)[O-] [1-Decanaminium,N-decyl-N,N-dimethyl-, hexanedioate(2:1)]
SURFACE TENSION [1]: 32.3 mN/m

Compound: CCCCCCCC/C=C/CCCCCCCCN(CCO)CCO [2-[(2-hydroxyethyl)[(9E)-octadec-9-en-1-yl]amino]ethan-1-ol]
SURFACE TENSION [1]: 27 mN/m

Compound: CCCCCCCCCCCCCC[N+](C)(C)CCCCCCCCCCCCCC.[Cl-] [N,N-dimethyl-N-tetradecyltetradecan-1-aminium chloride]
SURFACE TENSION [1]: 28 mN/m

Compound: CCCCN(C)C [N,N-dimethylbutylamine, reference compound]
pKa, experimental reference data [2]: 10.02

Compound: CCCCCCCCCCCCCCCCN(C)C [N,N-dimethylhexadecan-1-amine]
SURFACE TENSION [1]: 30.5 mN/m

Compound: CCCN(C)C [N,N-dimethylpropylamine, reference compound]
pKa, experimental reference data [2]: 9.99

Compound: CCCCNCCCC [N-butylbutan-1-amine]
SURFACE TENSION [1]: 50.6 mN/m

Compound: CCCCNC [N-methylbutylamine, reference compound]
pKa, experimental reference data [2]: 10.9

factor by which BCF is lower at pH 6.2 than at pH 7.6 [4]: 22
BCF (kU/kT) ([4]; pH 6.2 (MIX1pH)): 0.1 ^b L kg^–1
BCF (kU/kT) ([4]; pH 7.6 (MIX1, MIX2)): 2.2 L kg^–1
Compound: CCCCCCCCCN [P9, Nonylamine]
Log DMLW,C (membrane-water partition coefficient of the charged form) [3]: 3.72
pKa used (selected value) ([2]; selected per amine type, weighted from simulated and experimental analogue data): C9NH2 (10.6)

factor by which k2 was less than kT (gills of rainbow trout): ~10
pH dependency of k2 (factor between pH 7.6 and pH 6.2) (gills of rainbow trout; MIX1 vs MIX1pH): 2.5
Uptake resistance (gills of rainbow trout; lower pH (6.2), value printed in Figure 3): 744 h m^-1
k2/kT (gills of rainbow trout; pH 6.2 (MIX1pH)): 0.04
predicted gill elimination rate constant eq 1 (k2) (gills of rainbow trout; pH 6.2 (MIX1pH)): 0.0022 h^–1
k2/kT (gills of rainbow trout; pH 7.6 (MIX1, MIX2)): 0.11
predicted gill elimination rate constant eq 1 (k2) (gills of rainbow trout; pH 7.6 (MIX1, MIX2)): 0.0009 h^–1
k el ([5]; pH 6.2 (MIX1pH)): 1.42e-05 s⁻¹
k el ([5]; pH 7.6 (MIX1, MIX2)): 2.25e-06 s⁻¹
factor by which BCF is lower at pH 6.2 than at pH 7.6 [4]: 34
uptake rate constant (kU) ([4]; pH 6.2 (MIX1pH)): 0.36 L kg^–1 h^–1
BCF (kU/kT) ([4]; pH 6.2 (MIX1pH)): 7.1 L kg^–1
uptake rate constant (kU) ([4]; pH 7.6 (MIX1, MIX2), 10 °C): 2.0 L kg^–1 h^–1
BCF (kU/kT) ([4]; pH 7.6 (MIX1, MIX2)): 250 L kg^–1
Compound: CCCCCCCCCCCCN [P12, Dodecylamine]
Log DMLW,C (membrane-water partition coefficient of the charged form) [3]: 5.58
